Laboratory results reported in ChEMBL document CHEMBL4706577, “Design, synthesis, antitrypanosomal activity, DNA/RNA binding and in vitro ADME profiling of novel imidazoline-substituted 2-arylbenzimidazoles” (Eur J Med Chem, 2020).
Activity calls are given as the source filed them. The calls are words filed in the database; no cut-off is given here.

How the values were obtained:
[1] = Apparent permeability across basolateral to apical side in dog MDCK-MDR1 cells incubated for 60 mins by LC-MS/MS analysis; type: ADME, cell-based, Canis lupus familiaris
[2] = Apparent permeability across apical to basolateral side in dog MDCK-MDR1 cells incubated for 60 mins by LC-MS/MS analysis; type: ADME, cell-based, Canis lupus familiaris
[3] = test system: Trypanosoma brucei brucei; experiment: Antitrypanosomal activity against bloodstream form of Trypanosoma brucei brucei 221 assessed as parasite growth inhibition at 100 ug/ml incubated for 48 hrs by resazurin staining based assay relative to control; type: functional
[4] = Efflux ratio of apparent permeability from basolateral to apical side over apical to basolateral side in MDCK-MDR1 cells; type: ADME, cell-based, Canis lupus familiaris; conditions: dog
[5] = test system: Trypanosoma brucei brucei; experiment: Antitrypanosomal activity against bloodstream form of Trypanosoma brucei brucei 221 assessed as parasite growth inhibition at 1 ug/ml incubated for 48 hrs by resazurin staining based assay relative to control; type: functional
[6] = test system: Trypanosoma brucei brucei; experiment: Antitrypanosomal activity against bloodstream form of Trypanosoma brucei brucei 221 assessed as parasite growth inhibition incubated for 48 hrs by resazurin staining based assay; type: functional, organism-based; conditions: for IC50: Trypanosoma brucei, 221, 48 h; for IC90: Trypanosoma brucei, 221, time 48 hrs
[7] = test system: Trypanosoma brucei brucei; experiment: Potency index, ratio of nifurtimox IC50 to compound IC50 for antitrypanosomal activity against blood stream form of Trypanosoma brucei brucei 221; type: functional
[8] = test system: Poly(dA-dT)oligonucleotide; experiment: Binding affinity to poly (dA-dT)2 (unknown origin) assessed as thermal stability by measuring melting temperature by spectrophotometric method; type: nucleic-acid assay
RNA = experiment: Binding affinity to major groove of ds-RNA (unknown origin) assessed as positive ICD band by CD spectroscopy; type: nucleic-acid assay
Calf thymus DNA [9] = experiment: Binding affinity to calf thymus DNA assessed as thermal stability by measuring melting temperature by spectrophotometric method; type: nucleic-acid assay; conditions: Bos taurus
dsDNA = experiment: Binding affinity to minor groove of ds-DNA (unknown origin) assessed as positive ICD band by CD spectroscopy; type: nucleic-acid assay
L6 = experiment: Cytotoxicity against rat L6 cells incubated for 6 days by resazurin dye based assay; type: cell-based; conditions: L6, 144 h
[10] = test system: Poly(dA-dU)oligonucleotide; experiment: Binding affinity to poly A-poly U (unknown origin) assessed as binding constant by fluorescence spectra analysis; type: nucleic-acid assay
[11] = test system: Poly(dA-dU)oligonucleotide; experiment: Binding affinity to poly A-poly U (unknown origin) assessed as thermal stability by measuring melting temperature by spectrophotometric method; type: nucleic-acid assay
[12] = test system: Poly(dA-dT)oligonucleotide; experiment: Binding affinity to p(dAdT)2 (unknown origin) assessed as binding constant by fluorescence spectra analysis; type: nucleic-acid assay
[13] = Selectivity index, ratio of IC50 for rat L6 cells to IC50 for Trypanosoma brucei brucei 221; type: toxicity; conditions: read-out: Ratio IC50
Calf thymus DNA [14] = experiment: Binding affinity to calf thymus DNA assessed as binding constant by fluorescence spectra analysis; type: nucleic-acid assay; conditions: Bos taurus
[15] = test system: Trypanosoma brucei brucei; experiment: Antitrypanosomal activity against bloodstream form of Trypanosoma brucei brucei 221 assessed as parasite growth inhibition at 10 ug/ml incubated for 48 hrs by resazurin staining based assay relative to control; type: functional
[16] = test system: Trypanosoma brucei brucei; experiment: Antitrypanosomal activity against bloodstream form of Trypanosoma brucei brucei assessed as parasite growth inhibition incubated for 3 days by alamar blue staining based assay; conditions: 72 h
[17] = test system: Poly(dG-dC)oligonucleotide; experiment: Binding affinity to p(dGdC)2 (unknown origin) assessed as binding constant by fluorescence spectra analysis; type: nucleic-acid assay

| SMILES | Papp B→A at 1 h [1] | Papp A→B at 1 h [2] | efflux ratio [4] | inhibition at 100 µg/mL [3] | other results |
| --- | --- | --- | --- | --- | --- |
| CCN(CC)CCOc1ccc(-c2nc3cc(C4=NCCN4)ccc3[nH]2)cc1OC.Cl.Cl | 5 nm/s | < 1 nm/s | > 5 | 100% | Ratio IC50 [7]: >2; inhibition at 1 µg/mL [5]: > 90%; ΔTm [8]: 19.3 °C; Activity (RNA): Active; ΔTm (Calf thymus DNA [9]): 7.2 °C; Activity (dsDNA): Active; IC50 (L6): > 250 µM; log Ks [10]: 5.4; ΔTm [11]: 2.3 °C; log Ks [12]: 7.1; selectivity ratio [13]: > 350; log Ks (Calf thymus DNA [14]): 6.8; IC50 [6]: 0.71 µM; IC90 [6]: 1.47 µM |
| Cl.Cl.O=C(COc1ccc(-c2nc3cc(C4=NCCN4)ccc3[nH]2)cc1)N1CCOCC1 | 15.3 nm/s | 10.6 nm/s | 1.44 | 100% |  |
| Cl.Cl.Fc1cc(-c2nc3cc(C4=NCCN4)ccc3[nH]2)ccc1OCCN1CCOCC1 | 8.4 nm/s | 4.9 nm/s | 1.7 | 100% |  |
| Cl.Cl.O=C(COc1ccc(-c2nc3cc(C4=NCCN4)ccc3[nH]2)cc1F)N1CCOCC1 | 9.9 nm/s | 8.6 nm/s | 1.16 | 100% |  |
| COc1cc(-c2nc3cc(C4=NCCN4)ccc3[nH]2)ccc1OCCN1CCOCC1.Cl.Cl | 6.7 nm/s | 6.4 nm/s | 1.04 | 100% |  |
| CC1CS(=O)(=O)CCN1/N=C/c1ccc([N+](=O)[O-])o1 (stereo not given) [NIFURTIMOX] |  |  |  |  | IC50 [16]: 2 µM |
| CCN(CC)CCOc1ccc(-c2nc3cc(C4=NCCN4)ccc3[nH]2)cc1.Cl.Cl | 6.3 nm/s | 2.7 nm/s | 2.38 | 100% | Ratio IC50 [7]: >2; inhibition at 1 µg/mL [5]: > 90%; ΔTm [8]: 17.9 °C; Activity (RNA): Active; ΔTm (Calf thymus DNA [9]): 6.4 °C; Activity (dsDNA): Active; IC50 (L6): > 250 µM; log Ks [10]: 5.1; ΔTm [11]: 4.5 °C; log Ks [12]: 5.2; selectivity ratio [13]: > 530; log Ks (Calf thymus DNA [14]): 5.9; IC50 [6]: 0.47 µM; IC90 [6]: 1.82 µM; log Ks [17]: 5.3 |
| COc1cc(-c2nc3cc(C4=NCCN4)ccc3[nH]2)ccc1OCC(=O)N1CCOCC1.Cl.Cl | 13.8 nm/s | 17.6 nm/s | 0.78 | 100% |  |
| CCN(CC)CCOc1ccc(-c2nc3cc(C4=NCCN4)ccc3[nH]2)cc1F.Cl.Cl | 4.9 nm/s | 1.7 nm/s | 2.92 | 100% | inhibition at 1 µg/mL [5]: > 90%; ΔTm [8]: 14.7 °C; ΔTm (Calf thymus DNA [9]): 4.5 °C; IC50 (L6): > 250 µM; log Ks [10]: 4.9; ΔTm [11]: 2.4 °C; log Ks [12]: 6.4; selectivity ratio [13]: > 68; log Ks (Calf thymus DNA [14]): 6; IC50 [6]: 3.67 µM; log Ks [17]: 4.5 |
| Cl.c1cc(-c2nc3cc(C4=NCCN4)ccc3[nH]2)ccc1OCCN1CCOCC1 | 6.9 nm/s | 4.9 nm/s | 1.4 | 100% |  |

The next lines start with results.

| Papp B→A at 1 h [1] | Papp A→B at 1 h [2] | efflux ratio [4] | SMILES | inhibition at 100 µg/mL [3] | other results |
| --- | --- | --- | --- | --- | --- |
| 5.1 nm/s | 0.7 nm/s | 7.82 | Cl.c1ccc(COc2ccc(-c3nc4cc(C5=NCCN5)ccc4[nH]3)cc2)nc1 | 100% |  |
| 11.8 nm/s | 10.9 nm/s | 1.09 | Cl.Cl.c1cc(-c2nc3cc(C4=NCCN4)ccc3[nH]2)ccc1OCc1cn(CCN2CCOCC2)nn1 | 100% | inhibition at 1 µg/mL [5]: > 90%; IC50 [6]: > 4 µM |
| 2 nm/s | < 1 nm/s | > 2.4 | Cl.Fc1cc(-c2nc3cc(C4=NCCN4)ccc3[nH]2)ccc1OCc1ccccn1 | 100% | inhibition at 10 µg/mL [15]: 40% |
| 8.9 nm/s | 4.8 nm/s | 1.86 | COc1cc(-c2nc3cc(C4=NCCN4)ccc3[nH]2)ccc1OCc1cn(CCN2CCOCC2)nn1.Cl.Cl | 100% |  |
| < 1 nm/s | < 1 nm/s |  | COc1cc(-c2nc3cc(C4=NCCN4)ccc3[nH]2)ccc1OCc1cn(Cc2ccccc2)nn1.Cl | 100% |  |
| 8.4 nm/s | 4.6 nm/s | 1.81 | Cl.c1cc(-c2nc3cc(C4=NCCN4)ccc3[nH]2)ccc1OCc1c[nH]nn1 | 100% | inhibition at 1 µg/mL [5]: > 90%; IC50 [6]: > 4 µM |
| 0.9 nm/s | < 1 nm/s |  | Cl.Fc1cc(-c2nc3cc(C4=NCCN4)ccc3[nH]2)ccc1OCc1cn(Cc2ccccc2)nn1 | 100% |  |
|  | < 1 nm/s |  | COc1cc(-c2nc3cc(C4=NCCN4)ccc3[nH]2)ccc1OCC(=O)c1ccccc1.Cl | 100% |  |
| 8 nm/s | 4.9 nm/s | 1.64 | Cl.Cl.Fc1cc(-c2nc3cc(C4=NCCN4)ccc3[nH]2)ccc1OCc1cn(CCN2CCOCC2)nn1 | 100% | IC50 [6]: > 4 µM |
| 1.1 nm/s | < 1 nm/s |  | Cl.O=C(COc1ccc(-c2nc3cc(C4=NCCN4)ccc3[nH]2)cc1)c1ccccc1 | 100% |  |
| < 1 nm/s | < 1 nm/s |  | Cl.O=C(COc1ccc(-c2nc3cc(C4=NCCN4)ccc3[nH]2)cc1F)c1ccccc1 | 100% |  |
| 5.2 nm/s | 1.2 nm/s | 4.22 | COc1cc(-c2nc3cc(C4=NCCN4)ccc3[nH]2)ccc1OCc1ccccn1.Cl | 100% |  |
